Data from publication PMC5552880, “The Bitter Taste Receptor TAS2R16 Achieves High Specificity and Accommodates Diverse Glycoside Ligands by using a Two-faced Binding Pocket” (Scientific Reports, 2017).
Where a chain is given by its changes, count along the chain named. pEC50: −log10 of the molar value. Where “and” joins values, the source holds several entries; their conditions need not be identical. Identical values can stand only once. Like-named read-outs stand apart in the source and are kept apart here.

Assays:
Type in all cases: cell-based
wild-type TAS2R16 = molecular target: T1, wild-type TAS2R16 (Homo sapiens, UniProt Q9NYV7); experiment: Ca2+ flux assay, HEK-293T cells expressing wild-type TAS2R16 and Gα16gust44
T1 construct: FLAG (N); expressed in transfected cells; host or cells: HEK-293T
T1 sequence (Q9NYV7 1-291): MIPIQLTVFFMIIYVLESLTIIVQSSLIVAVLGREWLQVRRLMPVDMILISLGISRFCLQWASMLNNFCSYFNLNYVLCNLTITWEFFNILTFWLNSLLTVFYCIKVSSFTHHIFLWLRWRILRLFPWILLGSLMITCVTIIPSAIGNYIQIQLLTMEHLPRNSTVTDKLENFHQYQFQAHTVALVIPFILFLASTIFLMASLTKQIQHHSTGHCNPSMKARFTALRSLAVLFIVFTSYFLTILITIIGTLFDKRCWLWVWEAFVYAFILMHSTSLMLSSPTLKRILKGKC
Protocol: (§1) The TAS2R16 mutation library was tested for function using a Ca^2+ flux assay as described previously. Later screens of individual TAS2R16 mutant clones used 4-nitrophenyl-β-D-glucopyranoside. Briefly, HEK-293T cells, in poly-lysine coated, black 384-well plates with clear bottoms (Costar), were transfected with the TAS2R16 mutation library, and a plasmid expressing a Gα16 chimera containing the last 44 amino acids of rat gustducin (Gα16gust44). Cells were incubated for 22 hours at 37 °C then washed twice with a calcium indicator dye in HBSS containing 20 mM HEPES (Calcium 4 Assay kit, Molecular Devices), incubated with HBSS for 1.5 hr, then moved to a Flexstation II-384 (Molecular Devices) set at 32 °C. […] Concentrations for mutation library screening were chosen to be approximately 2 to 3 times higher than the EC50 values for the ligands to maximize the sensitivity of detecting decreases in signaling due to the mutation in each clone.
(§2) For Ca^2+ flux assays, the value of fluorescence at 30 seconds after ligand addition (the time of peak signal for wild-type TAS2R16) was used as the maximum value. […] Raw data obtained from surface expression and flux experiments were normalized to the values for wild-type TAS2R16 on each plate. Data sets were analyzed and represented as percentage over baseline signal. Mean and standard deviation values were calculated for each clone from replicate assay data.
Ligand dose-response data was analyzed with Graphpad Prism 5 software. Data was baseline subtracted and then fit using a sigmoidal dose-response (variable slope) equation.

N96T TAS2R16 = molecular target: T2, N96T TAS2R16 (Homo sapiens, UniProt Q9NYV7, N96T); experiment: Ca2+ flux assay, N96T TAS2R16 variant; conditions: Fig. 7 dose-response
T2 construct: FLAG (N); expressed in transfected cells; host or cells: HEK-293T
Protocol: as §1
(§3) For Ca^2+ flux assays, the value of fluorescence at 30 seconds after ligand addition (the time of peak signal for wild-type TAS2R16) was used as the maximum value. […] Data sets were analyzed and represented as percentage over baseline signal. Mean and standard deviation values were calculated for each clone from replicate assay data.
(§4) Ligand dose-response data was analyzed with Graphpad Prism 5 software. […]

N96A TAS2R16 = molecular target: T3, N96A TAS2R16 (Homo sapiens, UniProt Q9NYV7, N96A); experiment: Ca2+ flux assay, N96A TAS2R16 variant; conditions: Fig. 7 dose-response
T3 construct: FLAG (N); expressed in transfected cells; host or cells: HEK-293T
Protocol: as §1, §3, §4

S108T TAS2R16 = molecular target: T4, S108T TAS2R16 (Homo sapiens, UniProt Q9NYV7, S108T); experiment: Ca2+ flux assay, mutation library clone S108T; conditions: library screening concentrations
T4 construct: FLAG (N); expressed in transfected cells; host or cells: HEK-293T
T4 sequence (Q9NYV7 1-291 S108T): T1 sequence (Q9NYV7 1-291) with S108T
Protocol: as §1, §2

Y14H TAS2R16 = molecular target: T5, Y14H TAS2R16 (Homo sapiens, UniProt Q9NYV7, Y14H); experiment: Ca2+ flux assay, mutation library clone Y14H; conditions: 3 mM salicin, mean (range, max-min), n=3
T5 construct: FLAG (N); expressed in transfected cells; host or cells: HEK-293T
Protocol: as §1, §3

I21F TAS2R16 = molecular target: T6, I21F TAS2R16 (Homo sapiens, UniProt Q9NYV7, I21F); experiment: Ca2+ flux assay, mutation library clone I21F; conditions: 3 mM salicin, mean (range, max-min), n=3
T6 construct: FLAG (N); expressed in transfected cells; host or cells: HEK-293T
Protocol: as §1, §3

Q24R TAS2R16 = molecular target: T7, Q24R TAS2R16 (Homo sapiens, UniProt Q9NYV7, Q24R); experiment: Ca2+ flux assay, mutation library clone Q24R; conditions: 3 mM salicin, mean (range, max-min), n=3
T7 construct: FLAG (N); expressed in transfected cells; host or cells: HEK-293T
Protocol: as §1, §3

D46A TAS2R16 = molecular target: T8, D46A TAS2R16 (Homo sapiens, UniProt Q9NYV7, D46A); experiment: Ca2+ flux assay, mutation library clone D46A; conditions: 3 mM salicin, mean (range, max-min), n=3
T8 construct: FLAG (N); expressed in transfected cells; host or cells: HEK-293T
Protocol: as §1, §3

R56P TAS2R16 = molecular target: T9, R56P TAS2R16 (Homo sapiens, UniProt Q9NYV7, R56P); experiment: Ca2+ flux assay, mutation library clone R56P; conditions: 3 mM salicin, mean (range, max-min), n=3
T9 construct: FLAG (N); expressed in transfected cells; host or cells: HEK-293T
Protocol: as §1, §3

C58R TAS2R16 = molecular target: T10, C58R TAS2R16 (Homo sapiens, UniProt Q9NYV7, C58R); experiment: Ca2+ flux assay, mutation library clone C58R; conditions: 3 mM salicin, mean (range, max-min), n=3
T10 construct: V5; expressed in transfected cells; host or cells: HEK-293T
Protocol: as §1, §3

L59P TAS2R16 = molecular target: T11, L59P TAS2R16 (Homo sapiens, UniProt Q9NYV7, L59P); experiment: Ca2+ flux assay, mutation library clone L59P; conditions: 3 mM salicin, mean (range, max-min), n=3
T11 construct: Each construct in the mutation library was tested for full-length TAS2R16 translation; V5; expressed in transfected cells; host or cells: HEK-293T
Protocol: as §1, §3

W61R TAS2R16 = molecular target: T12, W61R TAS2R16 (Homo sapiens, UniProt Q9NYV7, W61R); experiment: Ca2+ flux assay, mutation library clone W61R; conditions: 3 mM salicin, mean (range, max-min), n=3
T12 construct: V5; expressed in transfected cells; host or cells: HEK-293T
Protocol: as §1, §3

M64R TAS2R16 = molecular target: T13, M64R TAS2R16 (Homo sapiens, UniProt Q9NYV7, M64R); experiment: Ca2+ flux assay, mutation library clone M64R; conditions: 3 mM salicin, mean (range, max-min), n=3
T13 construct: Each construct in the mutation library was tested for full-length TAS2R16 translation; V5; expressed in transfected cells; host or cells: HEK-293T
Protocol: as §1, §3

S97R TAS2R16 = molecular target: T14, S97R TAS2R16 (Homo sapiens, UniProt Q9NYV7, S97R); experiment: Ca2+ flux assay, mutation library clone S97R; conditions: 3 mM salicin, mean (range, max-min), n=3
T14 construct: Each construct in the mutation library was tested for full-length TAS2R16 translation; V5; expressed in transfected cells; host or cells: HEK-293T
Protocol: as §1, §3

C104R TAS2R16 = molecular target: T15, C104R TAS2R16 (Homo sapiens, UniProt Q9NYV7, C104R); experiment: Ca2+ flux assay, mutation library clone C104R; conditions: 3 mM salicin, mean (range, max-min), n=3
T15 construct: Each construct in the mutation library was tested for full-length TAS2R16 translation; V5; expressed in transfected cells; host or cells: HEK-293T
Protocol: as §1, §3

L134R TAS2R16 = molecular target: T16, L134R TAS2R16 (Homo sapiens, UniProt Q9NYV7, L134R); experiment: Ca2+ flux assay, mutation library clone L134R; conditions: 3 mM salicin, mean (range, max-min), n=3
T16 construct: Each construct in the mutation library was tested for full-length TAS2R16 translation; V5; expressed in transfected cells; host or cells: HEK-293T
Protocol: as §1, §3

N172K TAS2R16 = molecular target: T17, N172K TAS2R16 (Homo sapiens, UniProt Q9NYV7, N172K); experiment: Ca2+ flux assay, mutation library clone N172K; conditions: 3 mM salicin, mean (range, max-min), n=3
T17 construct: Each construct in the mutation library was tested for full-length TAS2R16 translation; V5; expressed in transfected cells; host or cells: HEK-293T
Protocol: as §1, §3

M271R TAS2R16 = molecular target: T18, M271R TAS2R16 (Homo sapiens, UniProt Q9NYV7, M271R); experiment: Ca2+ flux assay, mutation library clone M271R; conditions: 3 mM salicin, mean (range, max-min), n=3
T18 construct: Each construct in the mutation library was tested for full-length TAS2R16 translation; V5; expressed in transfected cells; host or cells: HEK-293T
Protocol: as §1, §3

L276R TAS2R16 = molecular target: T19, L276R TAS2R16 (Homo sapiens, UniProt Q9NYV7, L276R); experiment: Ca2+ flux assay, mutation library clone L276R; conditions: 3 mM salicin, mean (range, max-min), n=3
T19 construct: V5; expressed in transfected cells; host or cells: HEK-293T
Protocol: as §1, §3

T17 sequence (Q9NYV7 whole entry N172K): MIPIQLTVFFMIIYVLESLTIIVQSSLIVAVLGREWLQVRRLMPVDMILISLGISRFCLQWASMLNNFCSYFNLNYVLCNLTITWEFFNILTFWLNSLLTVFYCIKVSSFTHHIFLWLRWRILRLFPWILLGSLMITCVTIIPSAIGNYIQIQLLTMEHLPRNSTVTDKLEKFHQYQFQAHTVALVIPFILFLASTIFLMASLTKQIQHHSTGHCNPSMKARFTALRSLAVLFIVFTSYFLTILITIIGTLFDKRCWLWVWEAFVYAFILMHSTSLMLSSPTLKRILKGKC
T6 sequence (Q9NYV7 whole entry I21F): as the sequence (Q9NYV7 whole entry N172K) above, with I21F, K172N counted along it
T14 sequence (Q9NYV7 whole entry S97R): as the sequence (Q9NYV7 whole entry N172K) above, with S97R, K172N counted along it
T8 sequence (Q9NYV7 whole entry D46A): as the sequence (Q9NYV7 whole entry N172K) above, with D46A, K172N counted along it
T3 sequence (Q9NYV7 whole entry N96A): as the sequence (Q9NYV7 whole entry N172K) above, with N96A, K172N counted along it
T11 sequence (Q9NYV7 whole entry L59P): as the sequence (Q9NYV7 whole entry N172K) above, with L59P, K172N counted along it
T13 sequence (Q9NYV7 whole entry M64R): as the sequence (Q9NYV7 whole entry N172K) above, with M64R, K172N counted along it
T12 sequence (Q9NYV7 whole entry W61R): as the sequence (Q9NYV7 whole entry N172K) above, with W61R, K172N counted along it
T9 sequence (Q9NYV7 whole entry R56P): as the sequence (Q9NYV7 whole entry N172K) above, with R56P, K172N counted along it
T16 sequence (Q9NYV7 whole entry L134R): as the sequence (Q9NYV7 whole entry N172K) above, with L134R, K172N counted along it
T19 sequence (Q9NYV7 whole entry L276R): as the sequence (Q9NYV7 whole entry N172K) above, with K172N, L276R counted along it
T15 sequence (Q9NYV7 whole entry C104R): as the sequence (Q9NYV7 whole entry N172K) above, with C104R, K172N counted along it
T10 sequence (Q9NYV7 whole entry C58R): as the sequence (Q9NYV7 whole entry N172K) above, with C58R, K172N counted along it
T2 sequence (Q9NYV7 whole entry N96T): as the sequence (Q9NYV7 whole entry N172K) above, with N96T, K172N counted along it
T5 sequence (Q9NYV7 whole entry Y14H): as the sequence (Q9NYV7 whole entry N172K) above, with Y14H, K172N counted along it
T7 sequence (Q9NYV7 whole entry Q24R): as the sequence (Q9NYV7 whole entry N172K) above, with Q24R, K172N counted along it
T18 sequence (Q9NYV7 whole entry M271R): as the sequence (Q9NYV7 whole entry N172K) above, with K172N, M271R counted along it

- pEC50 (wild-type TAS2R16; Fig. 5b dose-response, wild-type TAS2R16, read-out: EC50 (WT)): 2.96
- pEC50 (wild-type TAS2R16; Fig. 6 comparative dose-response, wild-type TAS2R16, read-out: EC50 (WT)): 2.77
- pEC50 (wild-type TAS2R16; Fig. 7 dose-response, wild-type TAS2R16, read-out: EC50 (WT)): 2.26
- pEC50 (wild-type TAS2R16; Fig. 2d dose-response, wild-type TAS2R16, HEK-293T, read-out: EC50): 2.92
- activation of wild-type TAS2R16 (wild-type TAS2R16; wild-type TAS2R16, HEK-293T): robust receptor activation
- pEC50 (N96T TAS2R16): 3.10
- pEC50 (N96A TAS2R16): 2.19
- Ca2+ flux signaling value (S108T TAS2R16): 99 % of wild-type
- Ca2+ flux in response to salicin (Y14H TAS2R16): 9 (9) % of wild-type
- Ca2+ flux in response to salicin (I21F TAS2R16): 9 (5) % of wild-type
- Ca2+ flux in response to salicin (Q24R TAS2R16): 9 (9) % of wild-type
- Ca2+ flux in response to salicin (D46A TAS2R16): 8 (9) % of wild-type
- Ca2+ flux in response to salicin (R56P TAS2R16): 2 (1) % of wild-type
- Ca2+ flux in response to salicin (C58R TAS2R16): 5 (2) % of wild-type
- Ca2+ flux in response to salicin (L59P TAS2R16): 2 (3) % of wild-type
- Ca2+ flux in response to salicin (W61R TAS2R16): 15 (7) % of wild-type
- Ca2+ flux in response to salicin (M64R TAS2R16): 14 (1) % of wild-type
- Ca2+ flux in response to salicin (S97R TAS2R16): 0 (5) % of wild-type
- Ca2+ flux in response to salicin (C104R TAS2R16): 9 (1) % of wild-type
- Ca2+ flux in response to salicin (L134R TAS2R16): 1 (8) % of wild-type
- Ca2+ flux in response to salicin (M271R TAS2R16): 7 (6) % of wild-type
- Ca2+ flux in response to salicin (L276R TAS2R16): 17 (7) % of wild-type
Compound: OCc1ccccc1O[C@@H]1O[C@H](CO)[C@@H](O)[C@H](O)[C@H]1O [salicin]
- Ca2+ flux in response to salicin (N172K TAS2R16): 83 (13) % of wild-type and 83 % of wild-type
